The source of these data is patent publication US9493446B2, “Orexin receptor antagonists which are [ortho bi-(hetero-)aryl]-[2-(meta bi-(hetero-)aryl)-pyrrolidin-1-yl]-methanone derivatives” (Actelion Pharmaceuticals Ltd, priority 2012, dated 2016).

The target in one assay is orexin-1 (Homo sapiens (Human), UniProt O43613). Briefly: Intracellular calcium measurement (FLIPR), CHO cells expressing human orexin-1 receptor, 3 nM orexin-A. It counts as cell-based. Particulars: read-out: IC50 OX1. In short, it runs like this: (§1)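 HBSS buffer with 0.1% BSA, NaHCO3 and 20 mM HEPES carries both compounds and agonist. Dye: fluo-4 AM (3 μM) with 5 mM probenecid. Compound exposure 120 min; peak signal scored against uninhibited orexin-A response.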
(Calcium assays in cells follow changes in intracellular calcium, usually with a dye or a luminescent sensor.)

A further assay addresses human orexin-2 receptor (Homo sapiens (Human), UniProt O43614). Briefly: Intracellular calcium measurement (FLIPR), CHO cells expressing human orexin-2 receptor, 3 nM orexin-A. Type of assay: cell-based. Particulars: read-out: IC50 OX2. In short, it runs like this:
as §1

[1] abbreviates: CHO cells expressing human orexin-1 receptor, FLIPR, 3 nM orexin-A, geometric mean if determined several times.
Setting [2] is: CHO cells expressing human orexin-2 receptor, FLIPR, 3 nM orexin-A, geometric mean if determined several times.

For orientation: IC50 means the concentration at which inhibition is half-maximal.

Like-named read-outs stand apart in the source and are kept apart here.

Chain of orexin-1 (O43613 whole entry): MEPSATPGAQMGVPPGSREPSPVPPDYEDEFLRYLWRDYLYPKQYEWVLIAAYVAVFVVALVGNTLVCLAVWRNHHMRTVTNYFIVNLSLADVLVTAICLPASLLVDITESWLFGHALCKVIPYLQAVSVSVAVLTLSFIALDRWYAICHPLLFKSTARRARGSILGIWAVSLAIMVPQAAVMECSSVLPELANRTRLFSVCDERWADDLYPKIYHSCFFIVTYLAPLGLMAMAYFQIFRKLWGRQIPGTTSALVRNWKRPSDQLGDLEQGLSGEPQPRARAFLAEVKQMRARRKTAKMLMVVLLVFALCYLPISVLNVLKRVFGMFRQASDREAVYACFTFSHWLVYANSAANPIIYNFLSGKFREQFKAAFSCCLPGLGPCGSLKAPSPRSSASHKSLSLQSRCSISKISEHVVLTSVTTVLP
Chain of human orexin-2 receptor (O43614 whole entry): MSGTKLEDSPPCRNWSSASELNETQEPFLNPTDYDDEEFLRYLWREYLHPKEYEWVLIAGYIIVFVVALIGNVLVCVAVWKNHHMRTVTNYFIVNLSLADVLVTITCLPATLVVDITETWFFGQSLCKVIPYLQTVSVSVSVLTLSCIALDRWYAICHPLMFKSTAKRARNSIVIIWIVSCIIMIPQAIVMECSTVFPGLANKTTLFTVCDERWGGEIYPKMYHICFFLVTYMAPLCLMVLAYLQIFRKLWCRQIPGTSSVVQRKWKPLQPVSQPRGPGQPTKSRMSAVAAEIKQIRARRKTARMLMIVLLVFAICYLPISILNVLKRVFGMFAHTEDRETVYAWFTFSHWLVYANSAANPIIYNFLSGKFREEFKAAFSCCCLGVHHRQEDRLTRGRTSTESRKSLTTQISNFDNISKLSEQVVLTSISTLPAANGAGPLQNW

With “{(S)-2-[3-(3-Chloro-phenyl)-[1,2,4]oxadiazol-5-yl]-pyrrolidin-1-yl}-thiophen-2-yl-methanone [Reference compound 2, reference compound]”, the figures for the half-inhibitory concentration (IC50) on orexin-1 (setting [1]) and on human orexin-2 receptor (setting [2]) were 253 nM and 41 nM, respectively.

`COc1ccc(C)c(-c2nc([C@@H]3CCCN3C(=O)c3ccc(C)cc3-n3nccn3)no2)c1` [compound 413, {(S)-2-[5-(5-Methoxy-2-methyl-phenyl)-[1,2,4]oxadiazol-3-yl]-pyrrolidin-1-yl}-(4-methyl-2-[1,2,3]triazol-2-yl-phenyl)-methanone]: the IC50 on orexin-1 (setting [1]) came out at 163 nM; on human orexin-2 receptor (setting [2]), 30 nM.

Take `COc1ccc(C(=O)N2CCC[C@H]2c2nc(-c3cccc(Cl)c3C)no2)c(-n2nccn2)c1` [compound 118]: the IC50 was 260 nM on orexin-1 and 48 nM at human orexin-2 receptor.

For `CCOc1ncccc1-c1noc([C@@H]2CCCN2C(=O)c2ccccc2-n2nccn2)n1` [compound 218, {(S)-2-[3-(2-Ethoxy-pyridin-3-yl)-[1,2,4]oxadiazol-5-yl]-pyrrolidin-1-yl}-(2-[1,2,3]triazol-2-yl-phenyl)-methanone], the IC50 at orexin-1 (setting [1]) was determined as 331 nM; at human orexin-2 receptor (setting [2]), 99 nM.

On to `Cc1ccc(-c2ccccn2)c(C(=O)N2CCC[C@H]2c2nc(-c3ccccc3C(F)(F)F)no2)c1` [compound 184, (5-Methyl-2-pyridin-2-yl-phenyl)-{(S)-2-[3-(2-trifluoromethyl-phenyl)-[1,2,4]oxadiazol-5-yl]-pyrrolidin-1-yl}-methanone], for which the results for the concentration for half-maximal inhibition (IC50) at orexin-1 (setting [1]) and on human orexin-2 receptor (setting [2]) were 311 nM and 133 nM, respectively.

As for `COc1c(Cl)cccc1-c1nc([C@@H]2CCCN2C(=O)c2cc(C)ccc2-n2nccn2)no1` [compound 351], the concentration for half-maximal inhibition (IC50) at orexin-1 was 22 nM; on human orexin-2 receptor (setting [2]) it was 4 nM.

For the compound `Cc1ccc(-n2nccn2)c(C(=O)N2CCC[C@H]2c2nc(-c3cn(C)c4ccccc34)no2)c1` [compound 57, {(S)-2-[3-(1-Methyl-1H-indol-3-yl)-[1,2,4]oxadiazol-5-yl]-pyrrolidin-1-yl}-(5-methyl-2-[1,2,3]triazol-2-yl-phenyl)-methanone], the IC50 stood at 7 nM at orexin-1 (setting [1]) and 4 nM on human orexin-2 receptor (setting [2]).

On to `Cc1ccc(-n2nccn2)c(C(=O)N2CCC[C@H]2c2nnc(-c3cccc(F)c3C)o2)c1` [Example 453, {(S)-2-[5-(3-Fluoro-2-methyl-phenyl)-[1,3,4]oxadiazol-2-yl]-pyrrolidin-1-yl}-(5-methyl-2-[1,2,3]triazol-2-yl-phenyl)-methanone], for which the IC50 was found to be 398 nM on orexin-1 (setting [1]) and 80 nM on human orexin-2 receptor (setting [2]).

As for `COc1cc(C(=O)N2CCC[C@H]2c2nc(-c3cccc(F)c3C)no2)c(-n2nccn2)cc1Cl` [compound 295], the IC50 on orexin-1 (setting [1]) turned out to be 78 nM; at human orexin-2 receptor (setting [2]), 3 nM.

Take `COc1cccc(-c2nc([C@@H]3CCCN3C(=O)c3ccc(Cl)cc3-n3nccn3)no2)c1C` [compound 362]: the IC50 at orexin-1 (setting [1]) is 171 nM; on human orexin-2 receptor it was 100 nM.

Turning to `Cc1ccc(C(=O)N2CCC[C@H]2c2nc(-c3ccccc3C(F)(F)F)no2)c(-n2nccn2)c1` [compound 180, (4-Methyl-2-[1,2,3]triazol-2-yl-phenyl)-{(S)-2-[3-(2-trifluoromethyl-phenyl)-[1,2,4]oxadiazol-5-yl]-pyrrolidin-1-yl}-methanone], the IC50 was 183 nM on orexin-1 (setting [1]) and 126 nM on human orexin-2 receptor (setting [2]).

For `Cc1cccc(-c2ocnc2C(=O)N2CCC[C@H]2c2nc(-c3ccccc3OC(F)(F)F)no2)c1` [compound 140, (5-m-Tolyl-oxazol-4-yl)-{(S)-2-[3-(2-trifluoromethoxy-phenyl)-[1,2,4]oxadiazol-5-yl]-pyrrolidin-1-yl}-methanone], the values for the IC50 at orexin-1 (setting [1]) and on human orexin-2 receptor (setting [2]) were 100 nM and 45 nM, respectively.

On to `Cc1c(Cl)cccc1-c1nnc([C@]2(C)CCCN2C(=O)c2cc(Cl)ccc2-n2nccn2)[nH]1` [compound 554], for which the results for the IC50 at orexin-1 (setting [1]) and on human orexin-2 receptor were 120 nM and 34 nM, respectively.

`COc1cccc(-c2nc([C@@H]3CCCN3C(=O)c3cc(C)c(C)cc3-n3nccn3)no2)c1C` [compound 356, (4,5-Dimethyl-2-[1,2,3]triazol-2-yl-phenyl)-{(S)-2-[5-(3-methoxy-2-methyl-phenyl)-[1,2,4]oxadiazol-3-yl]-pyrrolidin-1-yl}-methanone]: the IC50 amounted to 57 nM at orexin-1 (setting [1]) and 7 nM at human orexin-2 receptor (setting [2]).

`Cc1c(Cl)cccc1-c1noc([C@@H]2CCCN2C(=O)c2cc(F)ccc2-n2nccn2)n1` [compound 104]: the concentration for half-maximal inhibition (IC50) at orexin-1 (setting [1]) came to 1030 nM; on human orexin-2 receptor, 38 nM.

With `Cc1ccc(-n2nccn2)c(C(=O)N2CCC[C@@]2(C)c2nnc(-c3cccc(Cl)c3C)[nH]2)c1` [compound 550], the concentration for half-maximal inhibition (IC50) on orexin-1 (setting [1]) came out at 272 nM; on human orexin-2 receptor (setting [2]) it was 178 nM.

Take `COc1cc(C(=O)N2CCC[C@H]2c2noc(-c3cccc(C)c3C)n2)c(-n2nccn2)cc1C` [compound 403, {(S)-2-[5-(2,3-Dimethyl-phenyl)-[1,2,4]oxadiazol-3-yl]-pyrrolidin-1-yl}-(5-methoxy-4-methyl-2-[1,2,3]triazol-2-yl-phenyl)-methanone]: the IC50 on orexin-1 (setting [1]) was found to be 25 nM; on human orexin-2 receptor (setting [2]) it was 2 nM.

For the compound `CCOc1ncccc1-c1noc([C@@H]2CCCN2C(=O)c2cc(C)ccc2-n2nccn2)n1` [compound 41, {(S)-2-[3-(2-Ethoxy-pyridin-3-yl)-[1,2,4]oxadiazol-5-yl]-pyrrolidin-1-yl}-(5-methyl-2-[1,2,3]triazol-2-yl-phenyl)-methanone], the IC50 was 22 nM on orexin-1 (setting [1]) and 7 nM on human orexin-2 receptor (setting [2]).

Turning to `Cc1cc(C)cc(-c2nnc([C@@H]3CCCN3C(=O)c3cc(C)ccc3-n3nccn3)o2)c1` [Example 451, {(S)-2-[5-(3,5-Dimethyl-phenyl)-[1,3,4]oxadiazol-2-yl]-pyrrolidin-1-yl}-(5-methyl-2-[1,2,3]triazol-2-yl-phenyl)-methanone], the IC50 was 535 nM on orexin-1 (setting [1]) and 326 nM on human orexin-2 receptor (setting [2]).

As to `Cc1c(Cl)cccc1-c1noc([C@@H]2CCCN2C(=O)c2cc(C(F)(F)F)ccc2-n2nccn2)n1` [compound 97], the 50% inhibitory concentration (IC50) on orexin-1 (setting [1]) was 568 nM; on human orexin-2 receptor (setting [2]), 194 nM.

With `O=C(c1cc(Cl)ccc1-n1nccn1)N1CCC[C@H]1c1nc(-c2ccccc2OC(F)(F)F)no1` [compound 143], the half-maximal inhibitory concentration (IC50) worked out at 47 nM at orexin-1 (setting [1]) and 34 nM on human orexin-2 receptor.

Take `CCOc1c(F)cccc1-c1noc([C@@H]2CCCN2C(=O)c2cc(OC)c(C)cc2-n2nccn2)n1` [compound 291, {(S)-2-[3-(2-Ethoxy-3-fluoro-phenyl)-[1,2,4]oxadiazol-5-yl]-pyrrolidin-1-yl}-(5-methoxy-4-methyl-2-[1,2,3]triazol-2-yl-phenyl)-methanone]: the results for the half-inhibitory concentration (IC50) at orexin-1 (setting [1]) and on human orexin-2 receptor (setting [2]) were 21 nM and 5 nM, respectively.

Regarding `O=C(c1cccc(F)c1-n1nccn1)N1CCC[C@H]1c1nc(-c2ccccc2OC(F)(F)F)no1` [compound 165, (3-Fluoro-2-[1,2,3]triazol-2-yl-phenyl)-{(S)-2-[3-(2-trifluoromethoxy-phenyl)-[1,2,4]oxadiazol-5-yl]-pyrrolidin-1-yl}-methanone], the IC50 on orexin-1 (setting [1]) is 286 nM; at human orexin-2 receptor (setting [2]) it was 79 nM.

With `Cc1ccc(-n2nccn2)c(C(=O)N2CCC[C@H]2c2nnc(-c3cccc(Cl)c3)o2)c1` [Example 455, {(S)-2-[5-(3-Chloro-phenyl)-[1,3,4]oxadiazol-2-yl]-pyrrolidin-1-yl}-(5-methyl-2-[1,2,3]triazol-2-yl-phenyl)-methanone], the half-inhibitory concentration (IC50) was found to be 835 nM on orexin-1 (setting [1]) and 1690 nM on human orexin-2 receptor (setting [2]).
